Here are results for eleven compounds from ChEMBL document CHEMBL1131884, “Dicationic 2-fluorenonylcarbapenems: potent anti-MRS agents with improved solubility and pharmacokinetic properties” (Bioorg Med Chem Lett, 1999).

In one test the target is T1, MecA (Staphylococcus aureus, UniProt Q7DHH4).
T1 sequence (Q7DHH4 whole entry): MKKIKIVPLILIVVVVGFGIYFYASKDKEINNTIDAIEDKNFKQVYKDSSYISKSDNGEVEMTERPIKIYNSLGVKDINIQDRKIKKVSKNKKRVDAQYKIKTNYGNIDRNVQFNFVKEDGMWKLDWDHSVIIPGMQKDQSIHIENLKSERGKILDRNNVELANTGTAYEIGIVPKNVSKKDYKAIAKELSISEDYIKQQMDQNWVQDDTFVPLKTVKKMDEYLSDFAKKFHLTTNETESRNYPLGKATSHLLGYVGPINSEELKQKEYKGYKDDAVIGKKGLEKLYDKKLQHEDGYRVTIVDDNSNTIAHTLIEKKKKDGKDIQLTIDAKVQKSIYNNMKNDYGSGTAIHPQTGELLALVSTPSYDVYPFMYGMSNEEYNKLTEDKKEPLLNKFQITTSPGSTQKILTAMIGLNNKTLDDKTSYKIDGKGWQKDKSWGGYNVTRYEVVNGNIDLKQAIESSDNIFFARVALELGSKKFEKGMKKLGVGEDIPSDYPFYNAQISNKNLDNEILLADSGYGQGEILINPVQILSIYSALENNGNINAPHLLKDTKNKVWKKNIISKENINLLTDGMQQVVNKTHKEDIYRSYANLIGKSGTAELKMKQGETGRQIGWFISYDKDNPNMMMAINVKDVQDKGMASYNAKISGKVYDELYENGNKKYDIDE
Briefly: Binding affinity against PBP2a receptor by competition analysis with [3H]benzylpenicillin using cell membrane fractions from the MRSA COL strain.
For orientation: IC50 means the concentration at which inhibition is half-maximal. The low end stands for greater potency, the high end for weaker potency. `CC(=O)c1ccc(NC(=O)C[N+]23CC[N+](Cc4ccc5c(c4)C(=O)c4ccc(C6=C(C(=O)O)N7C(=O)[C@H]([C@@H](C)O)[C@H]7[C@H]6C)cc4-5)(CC2)CC3)cc1.[Cl-].[Cl-]`: the IC50 is 3150 nM.

Take `C[C@@H](O)[C@H]1C(=O)N2C(C(=O)O)=C(c3ccc4c(c3)-c3ccc(C[N+]56CC[N+](CC(=O)N(C)C)(CC5)CC6)cc3C4=O)[C@H](C)[C@H]12.[Cl-].[Cl-]`: the concentration for half-maximal inhibition (IC50) was 581 nM.

`C[C@@H](O)[C@H]1C(=O)N2C(C(=O)O)=C(c3ccc4c(c3)-c3ccc(C[N+]56CC[N+](CCCC(N)=O)(CC5)CC6)cc3C4=O)[C@H](C)[C@H]12.[Cl-].[Cl-]` had an IC50 of 2980 nM.

Consider `C[C@@H](O)[C@H]1C(=O)N2C(C(=O)O)=C(c3ccc4c(c3)-c3ccc(C[N+]56CC[N+](CC#N)(CC5)CC6)cc3C4=O)C[C@H]12.[Cl-].[Cl-]`, for which the IC50 was 474 nM.

The compound `CNC(=O)C[N+]12CC[N+](Cc3ccc4c(c3)C(=O)c3ccc(C5=C(C(=O)O)N6C(=O)[C@H]([C@@H](C)O)[C@H]6[C@H]5C)cc3-4)(CC1)CC2.[Cl-].[Cl-]` showed an IC50 of 502 nM.

Take `C[C@@H](O)[C@H]1C(=O)N2C(C(=O)O)=C(c3ccc4c(c3)-c3ccc(C[N+]56CC[N+](CCOc7ccccc7)(CC5)CC6)cc3C4=O)[C@H](C)[C@H]12.[Cl-].[Cl-]`: the concentration for half-maximal inhibition (IC50) was 566 nM.

Regarding `C[C@@H](O)[C@H]1C(=O)N2C(C(=O)O)=C(c3ccc4c(c3)-c3ccc(C[N+]56CC[N+](CC(=O)Nc7ccccn7)(CC5)CC6)cc3C4=O)[C@H](C)[C@H]12.[Cl-].[Cl-]`, the IC50 was 430 nM.

For the compound `CCC[N+]12CC[N+](Cc3ccc4c(c3)C(=O)c3ccc(C5=C(C(=O)O)N6C(=O)[C@H]([C@@H](C)O)[C@H]6C5)cc3-4)(CC1)CC2.[Cl-].[Cl-]`, the IC50 was 456 nM.

On to `COc1cccc(NC(=O)C[N+]23CC[N+](Cc4ccc5c(c4)C(=O)c4ccc(C6=C(C(=O)O)N7C(=O)[C@H]([C@@H](C)O)[C@H]7[C@H]6C)cc4-5)(CC2)CC3)c1.[Cl-].[Cl-]`, for which the IC50 was 2430 nM.

`C[C@@H](O)[C@H]1C(=O)N2C(C(=O)O)=C(c3ccc4c(c3)-c3ccc(C[N+]56CC[N+](CC(=O)Nc7ccccc7)(CC5)CC6)cc3C4=O)[C@H](C)[C@H]12.[Cl-].[Cl-]`: the IC50 is 1780 nM.

Take `C[C@@H](O)[C@H]1C(=O)N2C(C(=O)O)=C(c3ccc4c(c3)-c3ccc(C[N+]56CC[N+](C)(CC5)CC6)cc3C4=O)C[C@H]12.[Cl-].[Cl-]`: the IC50 is 307 nM.

A further test relates to Staphylococcus sp. The test is described as follows: Antibacterial activity against methicillin-resistant coagulase negative Staphylococci (MRCNS). The format is functional.
For orientation: MIC50 means the lowest concentration that inhibits either 50% of growth or 50% of the strains tested, depending on the study. Read a low MIC50 as greater potency. What is called MIC90 is the lowest concentration that inhibits either 90% of growth or 90% of the strains tested, depending on the study. A higher MIC90 goes with lower susceptibility. `CC(=O)c1ccc(NC(=O)C[N+]23CC[N+](Cc4ccc5c(c4)C(=O)c4ccc(C6=C(C(=O)O)N7C(=O)[C@H]([C@@H](C)O)[C@H]7[C@H]6C)cc4-5)(CC2)CC3)cc1.[Cl-].[Cl-]` displayed an MIC50 of 1 µg/mL and an MIC90 of 4 µg/mL.

Consider `C[C@@H](O)[C@H]1C(=O)N2C(C(=O)O)=C(c3ccc4c(c3)-c3ccc(C[N+]56CC[N+](CC(=O)N(C)C)(CC5)CC6)cc3C4=O)[C@H](C)[C@H]12.[Cl-].[Cl-]`, for which the MIC50 was 4 µg/mL and the MIC90 turned out to be 16 µg/mL.

For the compound `C[C@@H](O)[C@H]1C(=O)N2C(C(=O)O)=C(c3ccc4c(c3)-c3ccc(C[N+]56CC[N+](CCCC(N)=O)(CC5)CC6)cc3C4=O)[C@H](C)[C@H]12.[Cl-].[Cl-]`, the MIC50 turned out to be 4 µg/mL and the MIC90 was found to be 8 µg/mL.

As for `C[C@@H](O)[C@H]1C(=O)N2C(C(=O)O)=C(c3ccc4c(c3)-c3ccc(C[N+]56CC[N+](CC#N)(CC5)CC6)cc3C4=O)C[C@H]12.[Cl-].[Cl-]`, the MIC50 amounted to 2 µg/mL and the MIC90 was 4 µg/mL.

Regarding `CNC(=O)C[N+]12CC[N+](Cc3ccc4c(c3)C(=O)c3ccc(C5=C(C(=O)O)N6C(=O)[C@H]([C@@H](C)O)[C@H]6[C@H]5C)cc3-4)(CC1)CC2.[Cl-].[Cl-]`, the MIC50 was determined as 4 µg/mL and the MIC90 was 8 µg/mL.

In the case of `C[C@@H](O)[C@H]1C(=O)N2C(C(=O)O)=C(c3ccc4c(c3)-c3ccc(C[N+]56CC[N+](CCOc7ccccc7)(CC5)CC6)cc3C4=O)[C@H](C)[C@H]12.[Cl-].[Cl-]`, the MIC50 worked out at 2 µg/mL and the MIC90 came to 4 µg/mL.

The compound `C[C@@H](O)[C@H]1C(=O)N2C(C(=O)O)=C(c3ccc4c(c3)-c3ccc(C[N+]56CC[N+](CC(=O)Nc7ccccn7)(CC5)CC6)cc3C4=O)[C@H](C)[C@H]12.[Cl-].[Cl-]` showed an MIC50 of 2 µg/mL and an MIC90 of 8 µg/mL.

Compound `CCC[N+]12CC[N+](Cc3ccc4c(c3)C(=O)c3ccc(C5=C(C(=O)O)N6C(=O)[C@H]([C@@H](C)O)[C@H]6C5)cc3-4)(CC1)CC2.[Cl-].[Cl-]` yielded an MIC50 of 2 µg/mL and an MIC90 of 4 µg/mL.

On to `COc1cccc(NC(=O)C[N+]23CC[N+](Cc4ccc5c(c4)C(=O)c4ccc(C6=C(C(=O)O)N7C(=O)[C@H]([C@@H](C)O)[C@H]7[C@H]6C)cc4-5)(CC2)CC3)c1.[Cl-].[Cl-]`, for which the MIC50 worked out at 1 µg/mL and the MIC90 was 4 µg/mL.

In the case of `C[C@@H](O)[C@H]1C(=O)N2C(C(=O)O)=C(c3ccc4c(c3)-c3ccc(C[N+]56CC[N+](CC(=O)Nc7ccccc7)(CC5)CC6)cc3C4=O)[C@H](C)[C@H]12.[Cl-].[Cl-]`, the MIC50 amounted to 2 µg/mL and the MIC90 was 4 µg/mL.

Consider `C[C@@H](O)[C@H]1C(=O)N2C(C(=O)O)=C(c3ccc4c(c3)-c3ccc(C[N+]56CC[N+](C)(CC5)CC6)cc3C4=O)C[C@H]12.[Cl-].[Cl-]`, for which the MIC50 was 2 µg/mL and the MIC90 was found to be 4 µg/mL.

The test system of the next test is Staphylococcus aureus. Briefly: Antibacterial activity against methicillin-resistant Staphylococcus aureus (MRSA). The format is functional.
With `CC(=O)c1ccc(NC(=O)C[N+]23CC[N+](Cc4ccc5c(c4)C(=O)c4ccc(C6=C(C(=O)O)N7C(=O)[C@H]([C@@H](C)O)[C@H]7[C@H]6C)cc4-5)(CC2)CC3)cc1.[Cl-].[Cl-]`, the MIC50 was found to be 0.5 µg/mL and the MIC90 turned out to be 1 µg/mL.

With `C[C@@H](O)[C@H]1C(=O)N2C(C(=O)O)=C(c3ccc4c(c3)-c3ccc(C[N+]56CC[N+](CC(=O)N(C)C)(CC5)CC6)cc3C4=O)[C@H](C)[C@H]12.[Cl-].[Cl-]`, the MIC50 amounted to 4 µg/mL and the MIC90 worked out at 8 µg/mL.

For `C[C@@H](O)[C@H]1C(=O)N2C(C(=O)O)=C(c3ccc4c(c3)-c3ccc(C[N+]56CC[N+](CCCC(N)=O)(CC5)CC6)cc3C4=O)[C@H](C)[C@H]12.[Cl-].[Cl-]`, the MIC50 was found to be 4 µg/mL and the MIC90 was 4 µg/mL.

For the compound `C[C@@H](O)[C@H]1C(=O)N2C(C(=O)O)=C(c3ccc4c(c3)-c3ccc(C[N+]56CC[N+](CC#N)(CC5)CC6)cc3C4=O)C[C@H]12.[Cl-].[Cl-]`, the MIC50 amounted to 2 µg/mL and the MIC90 amounted to 4 µg/mL.

For the compound `CNC(=O)C[N+]12CC[N+](Cc3ccc4c(c3)C(=O)c3ccc(C5=C(C(=O)O)N6C(=O)[C@H]([C@@H](C)O)[C@H]6[C@H]5C)cc3-4)(CC1)CC2.[Cl-].[Cl-]`, the MIC50 was 4 µg/mL and the MIC90 was 8 µg/mL.

Consider `C[C@@H](O)[C@H]1C(=O)N2C(C(=O)O)=C(c3ccc4c(c3)-c3ccc(C[N+]56CC[N+](CCOc7ccccc7)(CC5)CC6)cc3C4=O)[C@H](C)[C@H]12.[Cl-].[Cl-]`, for which the MIC50 is 1 µg/mL and the MIC90 is 2 µg/mL.

`C[C@@H](O)[C@H]1C(=O)N2C(C(=O)O)=C(c3ccc4c(c3)-c3ccc(C[N+]56CC[N+](CC(=O)Nc7ccccn7)(CC5)CC6)cc3C4=O)[C@H](C)[C@H]12.[Cl-].[Cl-]` registered an MIC50 of 2 µg/mL and an MIC90 of 4 µg/mL.

Consider `CCC[N+]12CC[N+](Cc3ccc4c(c3)C(=O)c3ccc(C5=C(C(=O)O)N6C(=O)[C@H]([C@@H](C)O)[C@H]6C5)cc3-4)(CC1)CC2.[Cl-].[Cl-]`, for which the MIC50 was 2 µg/mL and the MIC90 was 4 µg/mL.

`COc1cccc(NC(=O)C[N+]23CC[N+](Cc4ccc5c(c4)C(=O)c4ccc(C6=C(C(=O)O)N7C(=O)[C@H]([C@@H](C)O)[C@H]7[C@H]6C)cc4-5)(CC2)CC3)c1.[Cl-].[Cl-]`: the MIC50 is 1 µg/mL and the MIC90 was determined as 1 µg/mL.

Consider `C[C@@H](O)[C@H]1C(=O)N2C(C(=O)O)=C(c3ccc4c(c3)-c3ccc(C[N+]56CC[N+](CC(=O)Nc7ccccc7)(CC5)CC6)cc3C4=O)[C@H](C)[C@H]12.[Cl-].[Cl-]`, for which the MIC50 was determined as 2 µg/mL and the MIC90 stood at 2 µg/mL.

Turning to `C[C@@H](O)[C@H]1C(=O)N2C(C(=O)O)=C(c3ccc4c(c3)-c3ccc(C[N+]56CC[N+](C)(CC5)CC6)cc3C4=O)C[C@H]12.[Cl-].[Cl-]`, the MIC50 was 2 µg/mL and the MIC90 was determined as 8 µg/mL.
